In US20190381061A1, “LOCAL ANESTHESIA PAIN-RELIEVING TIME-DELAY AGENT” (priority 2013, published 2019):

How the values were obtained:
peripheral nerve medulla = conditions: cited from earlier work
patient = assay: Local anesthesia for clinical surgical operations: composition combined with a local anesthetic and injected locally; format: in vivo, human
Description: The above components are injected into 4 ml of 0.375% bupivacaine, and a 0.9% saline solution is added so that the total volume became 8 ml, and then, the composition is subcutaneously injected into both eyebrow regions.
The above components were injected into 30 ml of 1% prilocain hydrochloride according to the ratio, and 0.9% […] was added so that the total volume became 60 ml, and then, the composition was subcutaneously, intramuscularly and subperiosteally injected into the operation site of a patient using a 3 cm needle, and as the result, it was concluded that onset time of anesthesia is shortened to 60 seconds from 5 minutes of the existing case wherein only lidocaine was injected, and the duration of anesthetic action is prolonged from the existing 2 hours to 40 days. […].
The above components were injected into 20 ml of 0.5% procaine, and a 0.9% saline solution was added so that the total volume became 40 ml, and then, the composition was sequentially injected subcutaneously, intramusculary and intraperitoneally along the appendectomy scar of the patient using a 3 cm needle, and as the result, it was concluded that onset time of anesthetic is 60 seconds, and the duration of pain relief continues for 40 days. […]. […]

SMILES	concentration at which it may directly injure peripheral nerve medulla to cause irreparable nerve injury (peripheral nerve medulla) [%]	duration of anesthetic action / pain relief, existing (patient; existing case, without the composition of the example) [h]	onset time of anesthesia, existing case (patient; only the local anesthetic injected, without the composition) [min]
CN(C)c1ccc2nc3ccc(=[N+](C)C)cc-3sc2c1 [Methyleneblue]	> 0.03	–	–
CCN(CC)CC(=O)Nc1c(C)cccc1C [lidocaine]	–	2	5
